Reference: the OligoGym collection
“And” between values parts separate entries of the source, which are not always exact repeats. Identical values can stand only once. After the bases stand the sugars from the 5' end (letter, count) and the backbone: PS all phosphorothioate, else s phosphorothioate and o phosphodiester by linkage. Methylation of C is not given here. e = 2'-O-(2-methoxyethyl) (MOE); k = constrained ethyl (cEt); d = 2'-deoxy (DNA)

Molecular target: SOD1
Conditions: ASO

CTATACAAATCTTCCAA (sugars e3 k2 d7 k2 e3, PS)
target mRNA inhibition (HepG2, 3 µM): 13%

CTCCTGAGAGTGAGATCACA (sugars e5 d10 e5, PS)
target mRNA inhibition (HepG2, 5 µM): 27%

CTCGAAATTGATGATGCCCT (sugars e5 d10 e5, PS)
target mRNA inhibition (HepG2, 4 µM): 31%

CTCGCCCACTCTGGCCCCAA (sugars e5 d10 e5, PS)
target mRNA inhibition (HepG2, 4 µM): 45%

CTGCACTGGTACAGCCT (sugars e3 k2 d7 k2 e3, PS)
target mRNA inhibition (HepG2, 3 µM): 3%

CTGGCAAAATACAGGTC (sugars e2 k2 d9 k2 e2, PS)
target mRNA inhibition (HepG2, 5 µM): 53%

CTGGCAAAATACAGGTC (sugars e3 k2 d7 k2 e3, PS)
target mRNA inhibition (HepG2, 3 µM): 18%

CTGTGATTTAAGTCTGG (sugars e2 k2 d9 k2 e2, PS)
target mRNA inhibition (HepG2, 5 µM): 61%

CTTCCCCACACCTTCAC (sugars e3 k2 d7 k2 e3, PS)
target mRNA inhibition (HepG2, 3 µM): 29%

CTTCCCCACACCTTCACT (sugars e5 d8 e5, linkages s1 o3 s9 o2 s2)
target mRNA inhibition (A431, 0.12 µM): 0% | target mRNA inhibition (A431, 0.6 µM): 8% | target mRNA inhibition (A431, 3 µM): 3% | target mRNA inhibition (A431, 15 µM): 0% | target mRNA inhibition (HepG2, 0.222 µM): 0% | target mRNA inhibition (HepG2, 0.667 µM): 8% | target mRNA inhibition (HepG2, 2 µM): 38% | target mRNA inhibition (HepG2, 6 µM): 48%

CTTTTAAGATTACAGTG (sugars e2 k2 d8 k2 e3, PS)
target mRNA inhibition (HepG2, 5 µM): 62%

CTTTTAAGATTACAGTG (sugars e2 k2 d9 k2 e2, PS)
target mRNA inhibition (HepG2, 5 µM): 53%

CTTTTAATAGCCTCATAATA (sugars e5 d10 e5, PS)
target mRNA inhibition (HepG2, 5 µM): 0%

CTTTTTCATGGACCACC (sugars e3 k2 d7 k2 e3, PS)
target mRNA inhibition (HepG2, 3 µM): 87%

GAAATTCTGACAAGTTT (sugars e3 k2 d7 k2 e3, PS)
target mRNA inhibition (HepG2, 3 µM): 14%

GAATCTTCAATAGACACATC (sugars e5 d10 e5, PS)
target mRNA inhibition (HepG2, 5 µM): 22% and 11%

GAATGTTTATTGGGCGA (sugars e2 k2 d8 k2 e3, PS)
target mRNA inhibition (HepG2, 4 µM): 47%

GACAAAGAAATTCTGACAAG (sugars e5 d10 e5, PS)
target mRNA inhibition (HepG2, 5 µM): 8%

GACAAGTTTAATACCCA (sugars e2 k2 d8 k2 e3, PS)
target mRNA inhibition (HepG2, 5 µM): 54%

GACTACATCCAAGGGAA (sugars e3 k2 d7 k2 e3, PS)
target mRNA inhibition (HepG2, 3 µM): 19%

GAGACTACGACGCAAACCAG (sugars e5 d10 e5, PS)
target mRNA inhibition (HepG2, 4 µM): 23%

GAGGACCTGCACTGGTA (sugars e3 k2 d7 k2 e3, PS)
target mRNA inhibition (HepG2, 3 µM): 17%

GAGGTCCTGGTTCCGAGGAC (sugars e5 d10 e5, PS)
target mRNA inhibition (HepG2, 4 µM): 31%

GAGTTTTATAAAACTAT (sugars e3 k2 d7 k2 e3, PS)
target mRNA inhibition (HepG2, 3 µM): 6%

GATAACAGATGAGTTAA (sugars e2 k2 d9 k2 e2, PS)
target mRNA inhibition (HepG2, 4 µM): 28%

GATAACAGATGAGTTAA (sugars e3 k2 d7 k2 e3, PS)
target mRNA inhibition (HepG2, 3 µM): 11%

GATACATTTCTACAGCT (sugars e2 k2 d8 k2 e3, PS)
target mRNA inhibition (HepG2, 4 µM): 64%

GATACATTTCTACAGCTA (sugars e5 d8 e5, linkages s1 o3 s9 o2 s2)
target mRNA inhibition (A431, 0.12 µM): 7% | target mRNA inhibition (A431, 0.6 µM): 15% | target mRNA inhibition (A431, 3 µM): 39% | target mRNA inhibition (A431, 15 µM): 52% | target mRNA inhibition (HepG2, 0.222 µM): 28% | target mRNA inhibition (HepG2, 0.667 µM): 59% | target mRNA inhibition (HepG2, 2 µM): 73% | target mRNA inhibition (HepG2, 6 µM): 85%

GATAGAGGATTAAAGTG (sugars e3 k2 d7 k2 e3, PS)
target mRNA inhibition (HepG2, 3 µM): 8%

GATCATAAATCAGTTTC (sugars e2 k2 d8 k2 e3, PS)
target mRNA inhibition (HepG2, 5 µM): 34%

GATCCCAATTACACCAC (sugars e3 k2 d7 k2 e3, PS)
target mRNA inhibition (HepG2, 3 µM): 3%

GATGCCCTGCACTGGGCCGT (sugars e5 d10 e5, PS)
target mRNA inhibition (HepG2, 4 µM): 15%

GATTAAAGTGAGGACCT (sugars e3 k2 d7 k2 e3, PS)
target mRNA inhibition (HepG2, 3 µM): 8%

GATTACAGTGTTTAATG (sugars e2 k2 d9 k2 e2, PS)
target mRNA inhibition (HepG2, 5 µM): 61%

GATTACAGTGTTTAATG (sugars e3 k2 d7 k2 e3, PS)
target mRNA inhibition (HepG2, 3 µM): 10%

GATTCTTTTAATAGCCTCAT (sugars e5 d10 e5, PS)
target mRNA inhibition (HepG2, 5 µM): 4%

GCAGGAGACTACGACGCAAA (sugars e5 d10 e5, PS)
target mRNA inhibition (HepG2, 4 µM): 33%

GCAGGATAACAGATGAG (sugars e2 k2 d8 k2 e3, PS)
target mRNA inhibition (HepG2, 0.1875 µM): 26% | target mRNA inhibition (HepG2, 0.75 µM): 67% | target mRNA inhibition (HepG2, 3 µM): 84% | target mRNA inhibition (HepG2, 4 µM): 79% | target mRNA inhibition (HepG2, 12 µM): 93%
